{"source": "paper PMC9198545", "about": "“Pharmacokinetics and Pharmacodynamics of Fungal Defensin NZX Against Staphylococcus aureus-Induced Mouse Peritonitis Model” (Frontiers in Microbiology, 2022)", "key": {"S. aureus E48": {"tested_on": "S. aureus E48", "assay": "PK/PD index determination, dose fractionation, sigmoidal Emax model", "type": "in vivo, mouse", "method": "A dose fractionation study was applied to determine the PK/PD parameters of ƒAUC/MIC, ƒCmax/MIC, and ƒT% > MIC, and those parameters were predictive of efficacies for NZX against S. aureus E48. […] The correlations between efficacies and each PK/PD index were analyzed by non-linear least-squares regression based on the sigmoidal Emax model (Hill's equation) (Yu et al., [2016]). Hill's equation was defined as follows:\nE =[…] × Ce^N/EC50N + Ce^N\nwhere E is the observed antibacterial effect, which describes the change of log10 CFU/ml in the peritoneal fluid after 24 h of NZX treatment compared to the colony counts at the start of therapy. Emax is the change of log10 CFU/ml in the peritoneal fluid after 24 h of NZX treatment when the maximum antibacterial effect has been reached. E0 is the change of log10 CFU/ml in the peritoneal fluid between initial therapy and after 24 h therapy in untreated control animals. Ce is defined as the three PK/PD parameters (ƒAUC/MIC ratio, ƒCmax/MIC ratio, and ƒT % > MIC). EC50 is the value of the PK/PD parameter that is required to achieve 50% of the maximum antibacterial effect. N is the steepness of the fitted concentration-response curve. The coefficient of determination (R^2) between efficacy and the PK/PD parameters was used for determining the goodness of fit of the curves. In addition, the parameters required to achieve bacterial stasis (Cs), 1 log10 kill, and 2 log10 kill were calculated interpolation or extrapolation based on Hill's equation."}, "[1]": {"assay": "Stability in mouse serum by RP-HPLC", "type": "in vitro ADME", "conditions": "25% mouse serum spiked with 100 μg/ml NZX, 37°C, peak area ratio to initial time, read-out: peptide remaining intact", "method": "The stability of NZX in the mouse serum was determined when placed at 37°C (Wang et al., [2020]). The stock mixture from 25% serum was spiked with 100 μg/ml NZX and vortexed well. The mixtures were incubated at 37°C. At 0, 4, 8, 12, and 24 h, samples were taken out, extracted, and analyzed by reverse-phase high-performance liquid chromatography (RP-HPLC). The results were expressed as the ratio of the peak area of the peptide at various times to that of the initial incubation time."}, "[2]": {"assay": "Pharmacokinetics in non-infected mice, single tail vein dose", "type": "in vivo, mouse", "conditions": "for T1/2, terminal elimination half-life / AUC, area under concentration-time curves / Cmax, peak concentration / MRT, mean residence time / Vd, apparent distribution volume: free-serum NZX; for T1/2, terminal elimination half-life: non-infected female ICR mice, microbiologic assay, non-compartment model; for AUC, area under concentration-time curves / Cmax, peak concentration / MRT, mean residence time / Vd, apparent distribution volume: non-infected mice", "method": "(§1) The 6-week-old, specific-pathogen-free, female ICR mice (starting weight, 23 to 27 g) were purchased from Beijing Vital River Laboratory Animal Technology Co., Ltd (Beijing, China). The animals were acclimatized for 2 to 3 days before the experiment. The pharmacokinetics of NZX was evaluated in uninfected female ICR mice that received a single tail vein NZX dose of 5, 10, or 20 mg/kg, respectively. After NZX administration, blood samples were collected by orbital venous from five mice per time point at 0.083 to 2 h intervals over 6 h. After centrifugation at 4,000 rpm for 20 min at 4°C, the serum was immediately separated and frozen at −80°C until analysis. Analyses of total serum concentrations of NZX were conducted by a microbiologic assay using S. aureus ATCC 6538p (CICC 10307) as the test strain (Andes et al., [2009]). […] The protein binding of NZX in serum was measured by the ultrafiltration method using Centrifree Filters (Merck Millipore Ltd., Product code: 4104), according to previously described methods by Brinch et al. ([2009]). The concentration of NZX in the ultrafiltrate was determined by HPLC methods.\nThe pharmacokinetic parameters of NZX in the serum were analyzed using a non-compartment model by WinNonlin software (version 8.1; Pharsight, USA). GraphPad Prism (version 9.0.1) was used for all statistical analyses. One-way ANOVA followed by Dunnett's test was performed to compare the difference between groups. A P-value <0.05 was considered as the significant difference. Kaplan Meier analysis was conducted for the survival curve; log-rank (Mantel-Cox) test analyses were used to compare the survival rate difference."}, "[3]": {"assay": "Serum protein binding by ultrafiltration", "type": "in vitro ADME, mouse", "conditions": "murine serum, ultrafiltration with Centrifree Filters, ultrafiltrate by HPLC", "method": "as §1"}, "[4]": {"conditions": "5 mg/kg, 1 dose in 24 h, total dose 0.125 mg"}, "[5]": {"conditions": "5 mg/kg, 2 doses in 24 h, total dose 0.25 mg"}, "[6]": {"conditions": "10 mg/kg, 1 dose in 24 h, total dose 0.25 mg"}, "[7]": {"conditions": "10 mg/kg, 2 doses in 24 h, total dose 0.5 mg"}, "[8]": {"conditions": "20 mg/kg, 1 dose in 24 h, total dose 0.5 mg"}, "[9]": {"conditions": "20 mg/kg, 2 doses in 24 h, total dose 1 mg"}, "[10]": {"conditions": "free NZX in serum, tail vein 5, 10, 20 mg/kg, range over doses"}}, "note": "Where a SMILES comes first, the peptide text is derived from it. Bridges are numbered along the chain shown (N, C = ends)."}
{"smiles": "CC[C@H](C)[C@@H]1NC(=O)[C@H](CO)NC(=O)[C@H](CCCCN)NC(=O)[C@@H]2CSSC[C@@H](C(=O)N[C@@H](Cc3ccc(O)cc3)C(=O)O)NC(=O)[C@H](CCCCN)NC(=O)[C@@H]3CSSC[C@H](NC(=O)[C@H](CCC(N)=O)NC(=O)[C@H]([C@@H](C)CC)NC(=O)[C@H](CC(=O)O)NC(=O)[C@H](CC(=O)O)NC(=O)[C@H](CCC(=O)O)NC(=O)[C@H](CO)NC(=O)[C@H](Cc4c[nH]c5ccccc45)NC(=O)[C@@H]4CCCN4C(=O)CNC(=O)[C@H](CC(N)=O)NC(=O)[C@@H](NC(=O)CNC(=O)[C@H](Cc4ccccc4)NC(=O)CN)CSSC[C@H](NC(=O)[C@H](Cc4ccc(O)cc4)NC(=O)CNC(=O)CNC(=O)[C@H](CCCCN)NC(=O)[C@H](Cc4ccc(O)cc4)NC(=O)CNC(=O)[C@H](CCCCN)NC1=O)C(=O)N[C@@H](C)C(=O)N[C@@H](CCCNC(=N)N)C(=O)NCC(=O)NCC(=O)N[C@@H](Cc1ccccc1)C(=O)N[C@@H](C(C)C)C(=O)N3)C(=O)N[C@@H](Cc1c[nH]cn1)C(=O)N[C@@H](CC(N)=O)C(=O)N[C@@H](Cc1c[nH]cn1)C(=O)N2", "note": "[NZX] (H-GFGCNGPWSEDDIQCHNHCKSIKGYKGGYCARGGFVCKCY-OH; disulfide 4-30, 15-37, 19-39)", "values": [{"measurement": "fAUC/MIC", "setting": "S. aureus E48; [4]", "value": 1.11}, {"measurement": "fT > MIC", "setting": "S. aureus E48; [4]", "value": 0.33, "unit": "h"}, {"measurement": "fAUC/MIC", "setting": "S. aureus E48; [5]", "value": 2.22}, {"measurement": "fT > MIC", "setting": "S. aureus E48; [5]", "value": 0.67, "unit": "h"}, {"measurement": "fAUC/MIC", "setting": "S. aureus E48; [6]", "value": 3.54}, {"measurement": "fT > MIC", "setting": "S. aureus E48; [6]", "value": 0.94, "unit": "h"}, {"measurement": "fAUC/MIC", "setting": "S. aureus E48; [7]", "value": 7.08}, {"measurement": "fT > MIC", "setting": "S. aureus E48; [7]", "value": 1.88, "unit": "h"}, {"measurement": "fAUC/MIC", "setting": "S. aureus E48; [8]", "value": 8.89}, {"measurement": "fT > MIC", "setting": "S. aureus E48; [8]", "value": 2.05, "unit": "h"}, {"measurement": "fAUC/MIC", "setting": "S. aureus E48; [9]", "value": 17.79}, {"measurement": "fT > MIC", "setting": "S. aureus E48; [9]", "value": 4.09, "unit": "h"}, {"measurement": "remaining at 24 h, 100 μg/ml", "setting": "[1]", "value": 97, "unit": "%"}, {"measurement": "time at which peak concentrations (Cmax) were observed", "setting": "[2]; after intravenous administration, 5, 10, 20 mg/kg", "value": 5, "unit": "min"}, {"measurement": "Cmax over the three dose levels", "setting": "[2]; [10]", "value": "2850 to 20550", "unit": "ng/mL"}, {"measurement": "T1/2 over the three dose levels", "setting": "[2]; [10]", "value": "19.2 to 30", "unit": "min"}, {"measurement": "Vd over the three dose levels", "setting": "[2]; [10]", "value": "1.4691 to 2.0739", "unit": "L/kg"}, {"measurement": "T1/2, terminal elimination half-life", "setting": "[2]; single intravenous 5 mg/kg, five mice per time point", "value": 19.2, "unit": "min"}, {"measurement": "AUC, area under concentration-time curves", "setting": "[2]; single intravenous 5 mg/kg", "value": 1110, "unit": "ng·h/mL"}, {"measurement": "Cmax, peak concentration", "setting": "[2]; single intravenous 5 mg/kg", "value": 2850, "unit": "ng/mL"}, {"measurement": "MRT, mean residence time", "setting": "[2]; single intravenous 5 mg/kg", "value": 19.2, "unit": "min"}, {"measurement": "Vd, apparent distribution volume", "setting": "[2]; single intravenous 5 mg/kg", "value": 2.0739, "unit": "L/kg"}, {"measurement": "T1/2, terminal elimination half-life", "setting": "[2]; single intravenous 10 mg/kg", "value": 30, "unit": "min"}, {"measurement": "AUC, area under concentration-time curves", "setting": "[2]; single intravenous 10 mg/kg", "value": 3540, "unit": "ng·h/mL"}, {"measurement": "Cmax, peak concentration", "setting": "[2]; single intravenous 10 mg/kg", "value": 6530, "unit": "ng/mL"}, {"measurement": "MRT, mean residence time", "setting": "[2]; single intravenous 10 mg/kg", "value": 38.4, "unit": "min"}, {"measurement": "Vd, apparent distribution volume", "setting": "[2]; single intravenous 10 mg/kg", "value": 2.04541, "unit": "L/kg"}, {"measurement": "T1/2, terminal elimination half-life", "setting": "[2]; single intravenous 20 mg/kg", "value": 27, "unit": "min"}, {"measurement": "AUC, area under concentration-time curves", "setting": "[2]; single intravenous 20 mg/kg", "value": 8890, "unit": "ng·h/mL"}, {"measurement": "Cmax, peak concentration", "setting": "[2]; single intravenous 20 mg/kg", "value": 20550, "unit": "ng/mL"}, {"measurement": "MRT, mean residence time", "setting": "[2]; single intravenous 20 mg/kg", "value": 33.6, "unit": "min"}, {"measurement": "Vd, apparent distribution volume", "setting": "[2]; single intravenous 20 mg/kg", "value": 1.4691, "unit": "L/kg"}, {"measurement": "Protein binding", "setting": "[3]", "value": 89.25, "unit": "%"}]}
